Source: PubChem BioAssay (NCI)
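Five concentrations, 48 hours, 96-well plates. The concentration for 50% growth inhibition is given as GI50. TGI: total growth inhibition.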

Experiments:
Assay in all cases: inhibition of tumour cell growth, NCI panel, 48 h
NCI-H460 lung = system: NCI-H460 lung
NCI/ADR-RES ovarian = system: NCI/ADR-RES ovarian
SK-MEL-2 melanoma = system: SK-MEL-2 melanoma
A498 renal = system: A498 renal
OVCAR-4 ovarian = system: OVCAR-4 ovarian
SF-268 CNS = system: SF-268 CNS
HOP-62 NSCLC = system: HOP-62 NSCLC
CCRF-CEM leukemia = system: CCRF-CEM leukemia
U251 CNS = system: U251 CNS
K-562 leukemia = system: K-562 leukemia

COc1cc(Cl)cc(-c2nn(-c3cccc(NC(=O)Nc4cc(C(F)(F)F)cc(C(F)(F)F)c4)c3)cc2-c2ccncc2)c1
GI50 (NCI-H460 lung): 374 nM
TGI (NCI-H460 lung): 1.71 µM
GI50 (NCI/ADR-RES ovarian): 778 nM
TGI (NCI/ADR-RES ovarian): 9.66 µM
GI50 (SK-MEL-2 melanoma): 454 nM
TGI (SK-MEL-2 melanoma): 1.91 µM
GI50 (A498 renal): 629 nM
TGI (A498 renal): 4.81 µM
GI50 (OVCAR-4 ovarian): 581 nM
TGI (OVCAR-4 ovarian): 17.5 µM
GI50 (SF-268 CNS): 645 nM
TGI (SF-268 CNS): 4.35 µM
GI50 (HOP-62 NSCLC): 851 nM
TGI (HOP-62 NSCLC): 2.6 µM
GI50 (CCRF-CEM leukemia): 312 nM
TGI (CCRF-CEM leukemia): 1.52 µM
GI50 (U251 CNS): 336 nM
TGI (U251 CNS): 1.36 µM
GI50 (K-562 leukemia): 339 nM
TGI (K-562 leukemia): 8.09 µM

CC(=O)OCC(=O)[C@@]12OC(C)(C)O[C@@H]1C[C@H]1[C@@H]3CC=C4C[C@@H](O)CC[C@]4(C)[C@H]3CC[C@@]12C
TGI (NCI/ADR-RES ovarian): > 100 µM
TGI (SK-MEL-2 melanoma): > 100 µM
TGI (A498 renal): > 100 µM
TGI (OVCAR-4 ovarian): > 100 µM
TGI (SF-268 CNS): > 100 µM
TGI (HOP-62 NSCLC): > 100 µM
TGI (CCRF-CEM leukemia): > 100 µM
TGI (U251 CNS): > 100 µM
TGI (K-562 leukemia): > 100 µM

Clc1ccc2nnnn2n1
GI50 (NCI-H460 lung): 3260 nM
TGI (NCI-H460 lung): 12 µM
GI50 (NCI/ADR-RES ovarian): 5610 nM
TGI (NCI/ADR-RES ovarian): > 100 µM
GI50 (SK-MEL-2 melanoma): 2880 nM
TGI (SK-MEL-2 melanoma): 20.7 µM
GI50 (A498 renal): 15100 nM
TGI (A498 renal): 54.9 µM
GI50 (OVCAR-4 ovarian): 5210 nM
TGI (OVCAR-4 ovarian): 17.7 µM
GI50 (SF-268 CNS): 3740 nM
TGI (SF-268 CNS): 37.2 µM
GI50 (HOP-62 NSCLC): 4510 nM
TGI (HOP-62 NSCLC): 33.1 µM
GI50 (CCRF-CEM leukemia): 3740 nM
TGI (CCRF-CEM leukemia): 29.8 µM
GI50 (U251 CNS): 3970 nM
TGI (U251 CNS): 22.7 µM
GI50 (K-562 leukemia): 2770 nM
TGI (K-562 leukemia): 17.4 µM

CC(C)COCC(CN(Cc1ccccc1)c1ccccc1)N1CCCC1 (centres undefined)
GI50 (NCI-H460 lung): 2540 nM
TGI (NCI-H460 lung): 8.14 µM
GI50 (NCI/ADR-RES ovarian): 3120 nM
TGI (NCI/ADR-RES ovarian): 14.4 µM
GI50 (SK-MEL-2 melanoma): 2730 nM
TGI (SK-MEL-2 melanoma): 8 µM
GI50 (A498 renal): 1030 nM
TGI (A498 renal): 10.4 µM
GI50 (OVCAR-4 ovarian): 2040 nM
TGI (OVCAR-4 ovarian): 11 µM
GI50 (SF-268 CNS): 4010 nM
TGI (SF-268 CNS): 16.1 µM
GI50 (HOP-62 NSCLC): 2820 nM
TGI (HOP-62 NSCLC): 14.4 µM
GI50 (CCRF-CEM leukemia): 2710 nM
TGI (CCRF-CEM leukemia): 13.7 µM
GI50 (U251 CNS): 3240 nM
TGI (U251 CNS): 13.3 µM
GI50 (K-562 leukemia): 3430 nM
TGI (K-562 leukemia): 10.3 µM

Cc1cc2[nH]c(=O)c3c4ccccc4cn3c2cc1C
GI50 (NCI-H460 lung): 4430 nM
TGI (NCI-H460 lung): 20.3 µM
GI50 (NCI/ADR-RES ovarian): 13600 nM
TGI (NCI/ADR-RES ovarian): 31.7 µM
GI50 (SK-MEL-2 melanoma): 18100 nM
TGI (SK-MEL-2 melanoma): 34.8 µM
GI50 (A498 renal): 21500 nM
TGI (A498 renal): 39.6 µM
GI50 (OVCAR-4 ovarian): 13500 nM
TGI (OVCAR-4 ovarian): 27.6 µM
GI50 (SF-268 CNS): 15300 nM
TGI (SF-268 CNS): 32.4 µM
GI50 (HOP-62 NSCLC): 2710 nM
TGI (HOP-62 NSCLC): 8.18 µM
GI50 (CCRF-CEM leukemia): 9920 nM
TGI (CCRF-CEM leukemia): 31.2 µM
GI50 (U251 CNS): 4030 nM
TGI (U251 CNS): 14.2 µM

Cc1ccc2c(c1)C(C)Cc1c(Cl)ncnc1N2C (centres undefined)
GI50 (NCI-H460 lung): 3660 nM
TGI (NCI-H460 lung): 91 µM
GI50 (NCI/ADR-RES ovarian): 2730 nM
TGI (NCI/ADR-RES ovarian): 23.1 µM
GI50 (SK-MEL-2 melanoma): 3030 nM
TGI (SK-MEL-2 melanoma): 8.1 µM
GI50 (A498 renal): 2080 nM
TGI (A498 renal): 4.78 µM
GI50 (OVCAR-4 ovarian): 3060 nM
TGI (OVCAR-4 ovarian): > 100 µM
GI50 (SF-268 CNS): 2500 nM
TGI (SF-268 CNS): 13.8 µM
GI50 (HOP-62 NSCLC): 3740 nM
TGI (HOP-62 NSCLC): 22.2 µM
GI50 (CCRF-CEM leukemia): 3820 nM
TGI (CCRF-CEM leukemia): > 100 µM
GI50 (U251 CNS): 4430 nM
TGI (U251 CNS): 67.9 µM
GI50 (K-562 leukemia): 3470 nM
TGI (K-562 leukemia): > 100 µM

CNCCNc1c2c(c(NCCNC)c3[nH]ccc13)C(=O)c1ccccc1C2=O
GI50 (NCI-H460 lung): 99.1 nM
TGI (NCI-H460 lung): 0.501 µM
GI50 (NCI/ADR-RES ovarian): 1260 nM
TGI (NCI/ADR-RES ovarian): 8.21 µM
GI50 (SK-MEL-2 melanoma): 581 nM
TGI (SK-MEL-2 melanoma): 2.55 µM
GI50 (A498 renal): 2140 nM
TGI (A498 renal): 4.27 µM
GI50 (OVCAR-4 ovarian): 1660 nM
TGI (OVCAR-4 ovarian): 5.11 µM
GI50 (SF-268 CNS): 222 nM
TGI (SF-268 CNS): 0.876 µM
GI50 (HOP-62 NSCLC): 135 nM
TGI (HOP-62 NSCLC): 0.543 µM
GI50 (CCRF-CEM leukemia): 14.8 nM
TGI (CCRF-CEM leukemia): 0.203 µM
GI50 (U251 CNS): 58.7 nM
TGI (U251 CNS): 0.615 µM
GI50 (K-562 leukemia): 126 nM
TGI (K-562 leukemia): > 100 µM

CCN1C(=O)N(c2ccccc2)C2NC(=S)N(/N=C/C=C/c3ccccc3)C21 (centres undefined)
GI50 (NCI-H460 lung): 377 nM
TGI (NCI-H460 lung): > 36.1 µM
GI50 (NCI/ADR-RES ovarian): 288 nM
TGI (NCI/ADR-RES ovarian): > 100 µM
GI50 (SK-MEL-2 melanoma): 345 nM
TGI (SK-MEL-2 melanoma): > 94.2 µM
GI50 (A498 renal): 105 nM
TGI (A498 renal): 0.699 µM
GI50 (OVCAR-4 ovarian): 4680 nM
TGI (OVCAR-4 ovarian): > 100 µM
GI50 (SF-268 CNS): 1020 nM
TGI (SF-268 CNS): > 100 µM
GI50 (HOP-62 NSCLC): 400 nM
TGI (HOP-62 NSCLC): > 100 µM
GI50 (CCRF-CEM leukemia): 350 nM
TGI (CCRF-CEM leukemia): > 100 µM
GI50 (U251 CNS): 440 nM
TGI (U251 CNS): > 100 µM
GI50 (K-562 leukemia): 155 nM
TGI (K-562 leukemia): > 100 µM

CCC[CH2][Sn]([CH2]CCC)([CH2]CCC)[O]C(=O)c1ccc(Cl)cc1Cl
GI50 (NCI-H460 lung): 143 nM
TGI (NCI-H460 lung): 0.299 µM
GI50 (NCI/ADR-RES ovarian): 177 nM
TGI (NCI/ADR-RES ovarian): 0.378 µM
GI50 (SK-MEL-2 melanoma): 149 nM
TGI (SK-MEL-2 melanoma): 0.333 µM
GI50 (A498 renal): 110 nM
TGI (A498 renal): 0.236 µM
GI50 (OVCAR-4 ovarian): 95.8 nM
TGI (OVCAR-4 ovarian): 0.226 µM
GI50 (SF-268 CNS): 134 nM
TGI (SF-268 CNS): 0.283 µM
GI50 (HOP-62 NSCLC): 164 nM
TGI (HOP-62 NSCLC): 0.319 µM
GI50 (U251 CNS): 170 nM
TGI (U251 CNS): 0.33 µM
GI50 (K-562 leukemia): 263 nM
TGI (K-562 leukemia): 1.02 µM

O=C(O)c1cc(-c2ccncc2)nc2ccccc12
TGI (NCI-H460 lung): > 100 µM
TGI (NCI/ADR-RES ovarian): > 100 µM
TGI (SK-MEL-2 melanoma): > 100 µM
TGI (A498 renal): > 100 µM
TGI (OVCAR-4 ovarian): > 100 µM
TGI (SF-268 CNS): > 100 µM
TGI (HOP-62 NSCLC): > 100 µM
TGI (U251 CNS): > 100 µM
TGI (K-562 leukemia): > 100 µM
